In patent publication US8697839B2, “GQ protein competitive inhibitory polypeptides, preparation methods and uses thereof” (Third Military Medical University, priority 2008, dated 2014):
Marks after values point to notes of the source that are not given here.

Tests used:
[1] = tested on: myocardial hypertrophy in mice induced by norepinephrine; experiment: myocardial hypertrophy in mice induced by norepinephrine; format: in vivo; conditions: for HI (heart index) / HW (heart weight) / LVI (left ventricular index or myocardial hypertrophy index) / LVW (left ventricular weight): x ± s
Experimental: Fifty of the mice used in the experiment (purchased from Center for Experimental Animals, Third Military Medical University) was assigned into five groups with 10 mice per group. The mice in the control group were administrated with 0.1% ascorbic acid-3 mg % potassium sodium tartrate-physiological saline, The mice in the model group were administrated with 0.1% ascorbic acid-6 mg % norepinephrine bitartrate-physiological saline (equivalent to 1.5 mg/kg NE); The mice in three dosing groups were administrated with the pentadecapeptide, the heptacosapeptide, and the pantapentacontapeptide at 30 μg/kg respectively, while administration of 0.1% ascorbic acid—6 mg % norepinephrine bitartrate—physiological saline. The administration was performed consecutively by intraperitoneal injection (ip), twice a day (bid), for 15 days. The dosing volumes for each group were 50 ml/kg. Then, the animals were sacrificed by cervical dislocation. The heart was removed by thoracotomy, washed with the chilled physiological saline to get rid of blood stain, blotted with filter paper, weighed on a scale. The atriums and the right ventricle were carefully removed (with the interventricular septum left), and the left ventricle was weighed.

[2] = tested on: cultured cardiocytes of the rats (hypertrophy induced by NE); experiment: protein content in rat cardiocyte hypertrophy induced by norepinephrine (Lowry method); format: cell-based, Wistar rats; conditions: for Protein content: 24 h, n = 6, x ± s; for effect on protein content in the hypertrophic cardiocyte induced by NE: polypeptide at 10 nmol/L
From the text: 1. Wistar rats 1-3 day postpartum (purchased from Center for Experimental Animal, Third Military Medical University) was used, sacrificed by cervical dislocation, and fixed on a dissecting table. The ventral skin of the corpus was disinfected with 2% iodine tincture and then 75% ethanol. The heart was removed, cutted into pieces of about 1-3 mm^3, digested repeatedly with a digestion solution containing 0.08% trypase, 0.02% EDTA, and 0.05% collogen. The cells were collected in DMEM containing 10% fetal bovine serum and cultured in an incubator at 37° C., 5% CO2.
2. The cardiocytes cultured for 48 h were subjected to replacement of the DMEM with a serum-free DMEM culture media and further cultured for 24 h before addition of a drug according to the following groups: • Normal control group; 10 μl of PBS was added. • Norepinephrine group; norepinephrine (NE, Serva Corporation, USA) was added at 1 μmol/L. • Polypeptide-dosed group: NE was added, while the corresponding polypeptide drug was added at 10 nmol/L.
(§1) 3. After addition of the drug, the cells were further cultured for 24 h and then the culture media was discarded. The culture was washed with PBS, followed by adding 0.5 ml of 5% trichloracetic acid per well, and left at 4° C. for 1 h. The precipitate was dissolved in 1 ml of 0.1 mol/L NaOH. The protein content was determined by Lowry method.

[3] = tested on: myocardial hypertrophy in rats induced by norepinephrine; experiment: myocardial hypertrophy in rats induced by norepinephrine; format: in vivo, Wistar rats; conditions: for HI (heart index) / HW (heart weight) / LVI (left ventricular index or myocardial hypertrophy index) / LVW (left ventricular weight): n = 6, x ± s
Experimental: Thirty of Wistar rats were selected and assigned into five groups with 6 rats per group. The rats in the control group were administrated with 0.1% ascorbic acid-3 mg % potassium sodium tartrate-physiological saline; the rats in the model group were administrated with 0.1% ascorbic acid-6 mg % norepinephrine bitartrate-physiological saline; the rats in the three dosing groups were administrated with the pentadecapeptide, the heptacosapeptide, and the pantapentacontapeptide at 15 μg/kg respectively, while administration of norepinephrine. The dosing volume for each group was 33 ml/kg, and the administration was performed consecutively by ip, bid, for 20 days. At that time, the heart and left ventricle were weighed.

[4] = clinical dosage converted into the dosage in the mouse; cited from earlier work
[5] = tested on: hypertrophic cardiocyte induced by angiotensin II; experiment: protein content in rat cardiocyte hypertrophy induced by angiotensin II (Lowry method); format: cell-based; conditions: for effect on protein content in the cardiocyte in comparison with Ang II: polypeptide 10 nmol/L + Ang II; for Protein content: 24 h, n = 6, x ± s
Experimental: 1. The cardiocytes were cultured for 48 h in the same way as described above, then subjected to replacement of the DMEM with a serum-free DMEM culture media, and further cultured for 24 h before addition of a drug according to the following groups: normal control group: 10 μl of PBS was added; Ang II group; Ang II was added at 1 μmol/L; serial polypeptide-dosed group: Ang II was added, while each of the dodecapeptide, pentadecapeptide, heptacosapeptide, pantapentacontapeptide was added at 10 nmol/L.
as §1, with “2.” for “3.”

[6] = tested on: myocardial hypertrophy in rats induced by aortic coarctation; experiment: myocardial hypertrophy in rats induced by aortic coarctation; format: in vivo, Wistar rats; conditions: 15 μg/kg ip once a day, 3 weeks post operation; x ± SEM
From the text: Healthy male Wistar rats (purchased from Center for Experimental Animals, Third Military Medical University) were randomly assigned into the following groups: the sham-operation group, operation model group (SRS), and polypeptide-dosing group. Before the operation, animals were fasted overnight and given Ad libitum access to water, and then anesthetized with pentobarbital sodium and underwent celiotomy. The abdominal aorta was separated, and a […] needle (0.80 mm outer diameter) was fastened along the abdominal aorta above the right renal artery with a silk suture before the needle was quickly removed. Then, the abdomen was closed by suturation. The rats in the sham operation group were subjected to the same treatment as the aforementioned, except no ligation with silk suture. From the first day post operation, the rats in the sham operation control group and in the operation model group were administrated with physiological saline at 7.5 ml/kg, ip, once a day; the rats in the dosing group were administrated with the pentadecapeptide, heptacosapeptide, and pantapentacontapeptide at 15 μg/kg respectively, ip, once a day. Rats were reared routinely for 3 weeks and then sacrificed. The heart was removed by thoracotomy, washed with the chilled physiological saline to get rid of blood stain, blotted with filter paper. The heart and the left ventricle were weighed on a scale.

[7] = tested on: rats with spontaneous hypertension (SHR); experiment: myocardial remodeling and blood pressure in rats with spontaneous hypertension (SHR); format: in vivo, rat; conditions: polypeptide 30 μg/kg ip bid, SHR, x ± s, n = 6
Experimental: 1. Thirty 13-week-old rats with spontaneous hypertension (SHR, purchased from Beijing Vital River Laboratory Animal Technology Co. Ltd., Beijing) were selected and randomly assigned into five groups with 6 rats per group:
SHR model group (Vehicle): 0.9% physiological saline, intraperitoneal injection at a dosage of 5 ml/kg, bid.
Positive control group (losartan): potassium losartan at a dosage of 6 mg/kg, intragastric administration, qd.
The pentadecapeptide group: administration of the pentadecapeptide at a dosage of 30 μg/kg by intraperitoneal injection, bid.
The heptacosapeptide group: administration of the heptacosapeptide at a dosage of 30 μg/kg by intraperitoneal injection, bid.
The pantapentacontapeptide group: administration of the pantapentacontapeptide at a dosage of 30 μg/kg by intraperitoneal injection, bid.
Six of INKY (Wistar-Kyoto) rats (purchased from Center for Experimental Animals, Third Military Medical University) were additionally selected as the normal control.
2. Intervention with the drug was performed consecutively for eight weeks (from Week 14 to Week 21). The body weights of all the tested rats were obtained once every two weeks, and the administration dosage was adjustedbased on body weights.

[8] = NE model group: equivalent to 1.5 mg/kg NE ip bid 15 days, alone
[9] = NE model group: 6 mg % norepinephrine bitartrate, 33 ml/kg ip bid 20 days, alone
[10] = polypeptide 10 nmol/L together with NE 1 μmol/L
[11] = polypeptide 10 nmol/L together with Ang II 1 μmol/L
[12] = polypeptide 30 μg/kg ip bid 15 days with NE
[13] = polypeptide 15 μg/kg ip bid 20 days with norepinephrine

Molecule: NC[C@H](O)c1ccc(O)c(O)c1 [NE, norepinephrine, reference compound]
- HI (heart index) [1, 8]: 4.82 ± 0.44 mg/g
- HW (heart weight) [1, 8]: 112.1 ± 12.1 mg
- LVI (left ventricular index or myocardial hypertrophy index) [1, 8]: 3.69 ± 0.36 mg/g
- LVW (left ventricular weight) [1, 8]: 85.6 ± 9.16 mg
- Protein content ([2]; NE group: NE 1000 nmol/L alone): 121.0 ± 13.2 μg/10^5 cells
- HI (heart index) [3, 9]: 3.674 ± 0.348 g/kg
- HW (heart weight) [3, 9]: 0.690 ± 0.078 g
- LVI (left ventricular index or myocardial hypertrophy index) [3, 9]: 2.954 ± 0.225 g/kg
- LVW (left ventricular weight) [3, 9]: 0.555 ± 0.055 g

Molecule: C[C@H](CS)C(=O)N1CCC[C@H]1C(=O)O [captopril]
- ratio of mouse LD50/routine dosage [4]: 388

Molecule: Dicosapeptide: SEQ ID NO: 7 (icosapeptide), obtained by deleting amino acid residues 1 to 35 at the N-terminal of SEQ ID NO: 1 (VFAAVKDTILQLNLKEYNLV; listed as Homo sapiens)
- Protein content [2, 10]: 103.4 ± 11.4 μg/10^5 cells
- effect on protein content in the hypertrophic cardiocyte induced by NE [2]: significantly decrease

Molecule: Dodecapeptide: SEQ ID NO: 10, obtained by deleting amino acid residues 1 to 43 at the N-terminal of SEQ ID NO: 1 (ILQLNLKEYNLV; listed as Homo sapiens)
- Protein content [2, 10]: 113.3 ± 11.6 μg/10^5 cells
- effect on protein content in the hypertrophic cardiocyte induced by NE [2]: no manifest effect
- effect on protein content in the cardiocyte in comparison with Ang II [5]: no manifest effect
- Protein content [5, 11]: 144.0 ± 11.7 μg/10^5 cells

Molecule: Heptadecapeptide: SEQ ID NO: 8, obtained by deleting amino acid residues 1 to 38 at the N-terminal of SEQ ID NO: 1 (AVKDTILQLNLKEYNLV; listed as Homo sapiens)
- Protein content [2, 10]: 96.4 ± 10.5 μg/10^5 cells
- effect on protein content in the hypertrophic cardiocyte induced by NE [2]: significantly decrease

Molecule: Pentadecapeptide: SEQ ID NO: 9, obtained by deleting amino acid residues 1 to 40 at the N-terminal of SEQ ID NO: 1 (KDTILQLNLKEYNLV; listed as Homo sapiens)
- decrease of heart weight ([1]; 30 μg/kg ip bid 15 days with NE, P>0.05): 9.9%
- HI (heart index) [1, 12]: 4.27 ± 0.42 mg/g
- HW (heart weight) [1, 12]: 100.9 ± 12.8 mg
- LVI (left ventricular index or myocardial hypertrophy index) [1, 12]: 3.16 ± 0.39 mg/g
- LVW (left ventricular weight) [1, 12]: 74.7 ± 9.25 mg
- Protein content [2, 10]: 104.3 ± 12.6 μg/10^5 cells
- effect on protein content in the hypertrophic cardiocyte induced by NE [2]: significantly decrease
- HI [6]: 3.39 ± 0.10 mg/g
- HW [6]: 706 ± 30.8 mg
- LVI [6]: 2.01 ± 0.06 mg/g
- LVW [6]: 418 ± 12.3 mg
- effect on protein content in the cardiocyte in comparison with Ang II [5]: decrease the protein content in the cardiocyte in varying degrees
- Protein content [5, 11]: 130.6 ± 10.79 μg/10^5 cells
- effect on the left ventricular index ([3]; 15 μg/kg ip bid 20 days with norepinephrine): significantly decrease
- HI (heart index) [3, 13]: 3.580 ± 0.226 g/kg
- HW (heart weight) [3, 13]: 0.673 ± 0.055 g
- LVI (left ventricular index or myocardial hypertrophy index) [3, 13]: 2.606 ± 0.154 g/kg
- LVW (left ventricular weight) [3, 13]: 0.490 ± 0.038 g
- Systolic blood pressure of artery ([7]; 0 w): 177.3 ± 6.42 mmHg
- Systolic blood pressure of artery ([7]; 2 w): 190.4 ± 7.75 mmHg
- Systolic blood pressure of artery ([7]; 4 w): 200.2 ± 4.13 mmHg
- Systolic blood pressure of artery ([7]; 6 w): 217.1 ± 8.82 mmHg
- Systolic blood pressure of artery ([7]; 8 w): 224.1 ± 6.37 mmHg
- EF (ejection fraction) ([7]; echocardiography): 89.4 ± 3.90%
- FS (shortening fraction) ([7]; echocardiography): 55.1 ± 4.33%
- IVST (intervertricular septum thickness) ([7]; echocardiography): 1.62 ± 0.20 mm
- LAD (left atrium sinistrum diameter) ([7]; echocardiography): 3.39 ± 0.33 mm
- LVEDD (left ventricular end diastolic diameter) ([7]; echocardiography): 5.38 ± 0.31 mm
- LVESD ([7]; echocardiography): 2.41 ± 0.35 mm
- PWT (left ventricular posterior wall thickness) ([7]; echocardiography): 1.96 ± 0.16 mm
- SV (stroke volume) ([7]; echocardiography): 0.32 ± 0.05 mL
- HI ([7]; eight weeks): 3.44 ± 0.05 mg/g
- HW ([7]; eight weeks): 1055 ± 30 mg
- LVI ([7]; eight weeks): 2.46 ± 0.04 mg/g
- LVW ([7]; eight weeks): 775 ± 28 mg
- CSA (cross section area of the cardiocyte) [7]: 329 ± 24** μm^2
- TDM (trans diameter of the cardiocyte) [7]: 14.88 ± 2.56 μm

Molecule: angiotensin II (DRVYIHPF; Angiotensin-2; UniProt P01019 25-32, looked up) [Ang II, inducer of cardiocyte hypertrophy, reference compound]
- protein content in the cardiocyte ([5]; Ang II added alone, vs 113.9±7.48 normal control, p<0.01): 143.2 ± 5.49 µg
- Protein content ([5]; Ang II group: Ang II 1000 nmol/L alone): 143.2 ± 5.49 μg/10^5 cells
